According to patent US8394954B2, “Benzophenone hybrids as anticancer agents and processes for the preparation thereof” (Council of Scientific & Industrial Research, priority 2007, dated 2013):

Tests used:
[1] = tested on: duplex-form calf thymus DNA (CT-DNA); experiment: Thermal denaturation studies with CT-DNA; type: binding; conditions: [BPD]:[DNA] molar ratio 1:5, CT-DNA 100 μM, ligand 20 μM, pH 7.00
Protocol: Compounds were subjected to thermal denaturation studies with duplex-form calf thymus DNA (CT-DNA). Working solutions in aqueous buffer (10 mM NaH2PO4/Na2HPO4, 1 mM Na2EDTA, pH 7.00+0.01) containing CT-DNA (100 μm in phosphate) and the BPD (20 μm) were prepared by addition of concentrated BPD solutions in DMSO to obtain a fixed [BPD]/[DNA] molar ratio of 1:5. The DNA-BPD solutions were incubated at 37° C. for 0, 18, and 36 h prior to analysis. Samples were monitored at 260 nm using a Beckman DU-7400 spectrophotometer fitted with high performance temperature controller, and heating was applied at 1° C. min-1 in the 40-90° C. range. DNA helix coil transition temperatures (Tm) were obtained from the maxima in the (dA260)/dT derivative plots. Results are given as the mean±standard deviation from three determinations and are corrected for the effects of DMSO co-solvent using a linear correction term. Drug-induced alterations in DNA melting behavior are given by: ΔTm=Tm(DNA+BPD)−Tm(DNA alone), where the Tm value for the BPD-free CT-DNA is 69.0±0.01.

[2] = tested on: human cancer cell lines of colon (Colo205), lung (Hop-62), cervix (SiHa), prostate (DU145, PC3), oral (DWD, HT1080), and breast (MCF7, Zr-75-1) origin; experiment: In vitro evaluation of cytotoxic activity in selected human cancer cell lines, 48 h exposure; type: cell-based; conditions: 48 h continuous drug exposure
Protocol: In vitro evaluation of cytotoxic activity. Compounds 6a, 6b, 6d, 6e, 8a and 8b were evaluated for in vitro anticancer activity against nine human tumor cells derived from six cancer types (colon, prostate, oral, lung, cervix and breast cancer) as shown in Table 2. […] Compounds 6a, 6b, 6d, 6e, 8a and 8b have been evaluated for their in vitro cytotoxicity in selected human cancer cell lines of colon (Colo205), lung (Hop-62), cervix (SiHa), prostate (DU145, PC3), oral (DWD, HT1080), and breast (MCF7, Zr-75-1) origin. A protocol of 48 h continuous drug exposure has been used and an […] has been used to estimate cell viability or growth. The results are expressed as percent of cell growth determined relative to that of untreated control cells

[3] = tested on: sixty human tumor cells derived from nine cancer types; experiment: NCI in vitro anticancer screen, 48 h exposure, SRB assay, mean over all lines; type: cell-based; conditions: for Log10LC50 mean graph midpoint (MG_MID) / Log10GI50 mean graph midpoint (MG_MID) / Log10TGI mean graph midpoint (MG_MID): human tumor cell lines, 48 h exposure; for Log10LC50 mean graph midpoint (MG_MID): 50% cell death; for Log10GI50 mean graph midpoint (MG_MID): 50% cell growth inhibition; for Log10TGI mean graph midpoint (MG_MID): total cell growth inhibition; for GI50: Homo sapiens, wide spectrum of activity against sixty cell lines in nine cell panels
Protocol: (§1) Compounds described herein were evaluated for in vitro anticancer activity. Particularly the 6a, 6b, 6d, 6h, 8a and 8b compounds were evaluated for in vitro anticancer activity against sixty human tumor cells derived from nine cancer types (leukemia, non-small-cell lung, colon, […], ovarian, prostate, and breast cancer) as shown in (Table 2 and 3). For the compound, dose response curves for each cell line were measured at a minimum of five concentrations at 10 fold dilutions. A protocol of 48 h continuous drug exposure was used and a sulforhodamine B (SRB) protein assay was used to estimate cell viability or growth. The concentration causing 50% cell growth inhibition (GI50), total cell growth inhibition (TGI 0% growth) and 50% cell death (LC50, −50% growth) compared with the control was calculated.

[4] = tested on: Leukemia cancer cell lines; experiment: NCI in vitro anticancer screen, leukemia panel; type: cell-based, human; conditions: average of six to nine cell lines; for GI50: Homo sapiens, read-out: Log GI50 (concentration in mol/L causing 50% growth inhibition) (converted)
Protocol: as §1

[5] = tested on: Nonsmall-cell-lung cancer cell lines; experiment: NCI in vitro anticancer screen, non-small-cell lung panel; type: cell-based, human; conditions: average of six to nine cell lines; for GI50: Homo sapiens, read-out: Log GI50 (concentration in mol/L causing 50% growth inhibition) (converted)
Protocol: as §1

[6] = tested on: Colon cancer cell lines; experiment: NCI in vitro anticancer screen, colon panel; type: cell-based, human; conditions: average of six to nine cell lines; for GI50: Homo sapiens, read-out: Log GI50 (concentration in mol/L causing 50% growth inhibition) (converted)
Protocol: as §1

[7] = tested on: CNS cancer cell lines; experiment: NCI in vitro anticancer screen, CNS panel; type: cell-based, human; conditions: average of six to nine cell lines; for GI50: Homo sapiens, read-out: Log GI50 (concentration in mol/L causing 50% growth inhibition) (converted)
Protocol: as §1

[8] = tested on: Melanoma cancer cell lines; experiment: NCI in vitro anticancer screen, melanoma panel; type: cell-based, human; conditions: average of six to nine cell lines; for GI50: Homo sapiens, read-out: Log GI50 (concentration in mol/L causing 50% growth inhibition) (converted)
Protocol: as §1

[9] = tested on: Ovarian cancer cell lines; experiment: NCI in vitro anticancer screen, ovarian panel; type: cell-based, human; conditions: average of six to nine cell lines; for GI50: Homo sapiens, read-out: Log GI50 (concentration in mol/L causing 50% growth inhibition) (converted)
Protocol: as §1

[10] = tested on: Renal cancer cell lines; experiment: NCI in vitro anticancer screen, renal panel; type: cell-based, human; conditions: average of six to nine cell lines; for GI50: Homo sapiens, read-out: Log GI50 (concentration in mol/L causing 50% growth inhibition) (converted)
Protocol: as §1

[11] = tested on: Prostate cancer cell lines; experiment: NCI in vitro anticancer screen, prostate panel; type: cell-based, human; conditions: average of six to nine cell lines; for GI50: Homo sapiens, read-out: Log GI50 (concentration in mol/L causing 50% growth inhibition) (converted)
Protocol: as §1

[12] = tested on: Breast cancer cell lines; experiment: NCI in vitro anticancer screen, breast panel; type: cell-based, human; conditions: average of six to nine cell lines; for GI50: Homo sapiens, read-out: Log GI50 (concentration in mol/L causing 50% growth inhibition) (converted)
Protocol: as §1

| Structure (SMILES) | ΔTm after incubation at 37° C. for 0 h [1] [°C] | ΔTm after incubation at 37° C. for 18 h [1] [°C] | ΔTm after incubation at 37° C. for 36 h [1] [°C] | cytotoxicity against some cancer cell lines [2] | Log10LC50 mean graph midpoint (MG_MID) [3] | Log10GI50 mean graph midpoint (MG_MID) [3] | Log10TGI mean graph midpoint (MG_MID) [3] | GI50 [4] [µM] | GI50 [5] [µM] | GI50 [6] [µM] | GI50 [7] [µM] | GI50 [8] [µM] | GI50 [9] [µM] | GI50 [10] [µM] | GI50 [11] [µM] | GI50 [12] [µM] | also measured |
| --- | --- | --- | --- | --- | --- | --- | --- | --- | --- | --- | --- | --- | --- | --- | --- | --- | --- |
| COc1cc(/C=C/C(=O)c2ccc(F)cc2)ccc1OCCCN1CCN(CC(=O)Nc2ccc(Cl)cc2C(=O)c2ccccc2Cl)CC1 [Compound 8] | 1.5 | 2.3 | 2.4 | – | – | – | – | – | – | – | – | – | – | – | – | – | – |
| COc1ccccc1N1CCN(CC(=O)Nc2ccc(Cl)cc2C(=O)c2ccccc2Cl)CC1 [Compound 6c, N1-[4-chloro-2-(2-chlorobenzoyl)phenyl]-2-[4-(2-methoxyphenyl)piperazino]acetamide] | 1.4 | 1.6 | 2.3 | promising cytotoxicity | – | – | – | – | – | – | – | – | – | – | – | – | – |
| CC(C)(C)c1cn2cccc(C(=O)N3CCN(CC(=O)Nc4ccc(Cl)cc4C(=O)c4ccccc4Cl)CC3)c2n1 [Compound 6e] | 1.9 | 2.3 | 2.8 | promising cytotoxicity | −5.39 | −5.93 | −6.28 | 0.851 | 0.661 | 0.589 | 1.41 | 3.47 | 3.55 | 1.05 | 1.35 | 2.14 | – |
| COc1cc2c(cc1O)N=CC1CCCN1C2=O (stereo not drawn) [DC-81, reference compound] | 0.3 | 0.7 | – | – | – | – | – | – | – | – | – | – | – | – | – | – | – |
| O=C(CN1CCN(CCCN2CCN(CC(=O)Nc3ccc(Cl)cc3C(=O)c3ccccc3Cl)CC2)CC1)Nc1ccc(Cl)cc1C(=O)c1ccccc1Cl [Compound 6g] | 1.6 | 2.6 | 2.9 | – | – | – | – | – | – | – | – | – | – | – | – | – | – |
| O=C(CN1CCN(CC(=O)Nc2ccc(Cl)cc2C(=O)c2ccccc2Cl)CC1)Nc1ccc(Cl)cc1C(=O)c1ccccc1Cl [Compound 6f, N1-[4-chloro-2-(2-chlorobenzoyl)phenyl]-2-(4-2-[4-chloro-2-(2-chlorobenzoyl)anilino]-2-oxoethylpiperazino)acetamide] | 1.3 | 2.1 | 3.0 | – | – | – | – | – | – | – | – | – | – | – | – | – | – |
| O=C(CN1CCN(c2ncccn2)CC1)Nc1ccc(Cl)cc1C(=O)c1ccccc1Cl [Compound 6b, N1-[4-chloro-2-(2-chlorobenzoyl)phenyl]-2-[4-(2-pyrimidinyl)piperazino]acetamide] | 1.5 | 2.1 | 2.6 | – | −5.73 | −6.57 | −6.89 | 5.5 | 3.63 | 2.14 | 5.89 | 1.78 | 5.75 | 5.62 | 16.6 | 6.76 | – |
| O=C(CN1CCN(c2ccccn2)CC1)Nc1ccc(Cl)cc1C(=O)c1ccccc1Cl [Compound 6a, N1-[4-chloro-2-(2-chlorobenzoyl)phenyl]-2-[4-(2-pyridyl)piperazino]acetamide] | 1.2 | 1.7 | 2.2 | promising cytotoxicity | −4.35 | −6.51 | −6.54 | 3.55 | 2.51 | 5.75 | 5.62 | 1.29 | 6.76 | 1.55 | 1.78 | 3.89 | GI50 [3]: < 20 µM |
| O=C(CN1CCN(CCCOc2oc3ccccc3c(=O)c2-c2ccccc2)CC1)Nc1ccc(Cl)cc1C(=O)c1ccccc1Cl [Compound 8a] | 1.4 | 2.1 | 2.1 | promising cytotoxicity | −5.32 | −6.19 | −6.33 | – | – | – | – | – | – | – | – | – | Log GI50 (concentration in mol/L causing 50% growth inhibition) [4]: −6.11 mol/L; Log GI50 (concentration in mol/L causing 50% growth inhibition) [5]: −5.75 mol/L; Log GI50 (concentration in mol/L causing 50% growth inhibition) [6]: −5.75 mol/L; Log GI50 (concentration in mol/L causing 50% growth inhibition) [7]: −5.69 mol/L; Log GI50 (concentration in mol/L causing 50% growth inhibition) [8]: −5.79 mol/L; Log GI50 (concentration in mol/L causing 50% growth inhibition) [9]: −5.80 mol/L; Log GI50 (concentration in mol/L causing 50% growth inhibition) [10]: −5.71 mol/L; Log GI50 (concentration in mol/L causing 50% growth inhibition) [11]: −5.56 mol/L; Log GI50 (concentration in mol/L causing 50% growth inhibition) [12]: −5.70 mol/L |
| O=C(c1ccccc1)c1cc(Cl)ccc1OCCCCN1CCN(CCCCOc2ccc(Cl)cc2C(=O)c2ccccc2)CC1 [Compound 8b] | 1.6 | 2.6 | 2.9 | – | −5.25 | −6.35 | −5.51 | 0.631 | 3.24 | – | 4.17 | – | 5.75 | 2.57 | 3.16 | 3.47 | GI50 [3]: < 20 µM |
